Holding throughout (format): cell-based, human
The test system of assay [1] is MNRR1. As to the kind of experiment: MNRR1 protein levels in MELAS cybrid cells (immunoblot). Conditions: MELAS cybrid cells, 10 μM, 24 h. As for the experimental part: FIGS. 6A-6C: FIG. 6A: Above, Chemical structures of nitazoxanide, its metabolites, and similar compounds. Abbreviations: P4, Phenyl-4-aminosalicylic acid; 4ABA, 4-Aminobenzanilide; 4ASA, 4-Amino salicylic acid; BA, Benzanilide; PBO, Phenyl benzoate; PSA, Phenyl salicylic acid; 2AN, 2-Amino 5-nitrothiazole. Below, Equal amounts of lysates of MELAS cells treated with Vehicle (DMSO) or the various compounds (10 μM) for 24 h were separated on an SDS-PAGE gel and probed for MNRR1 levels. Actin was probed as a loading control and numbers below represent an average and SD of 3 biological replicates. FIGS. 6B-6C: MNRR1 transcript levels are shown relative to 18S rRNA (n=4 biological replicates, error bars represent SE). In all figures, * indicates p<0.05, ** indicates p<0.005.
FIGS. 11A-11F: RBPJk and HIF2α compete for binding at the ORE in the MNRR1 promoter to regulate transcription. FIG. 11A: Chromatin immunoprecipitation-qPCR assessing binding of HIF2α to the endogenous MNRR1 promoter in MELAS cybrid cells with 0% (CL9) and 70% heteroplasmy (DW7). FIG. 11B: Dual luciferase reporter assay showing relative activation of MNRR1-luciferase levels in MELAS cybrid cells overexpressing varying proportions of constitutively active RBPJk (RBP-CA) and HIF2α. FIG. 11C: Dual luciferase reporter assay showing relative activation of MNRR1-luciferase levels in MELAS cybrid cells overexpressing the WT (FIG. 9A) or ΔORE (positions 47-53 in SEQ ID NO: 25 in FIG. 9C) promoter with EV (dotted line) or HIF2α. FIG. 11D: Equal amounts of Control or HIFα knockdown (KD) MELAS cybrid cell lysates were separated on an SDS-PAGE gel and probed for HIF2α and MNRR1 levels. Tubulin was probed as loading control. FIG. 11E: Oxygen consumption measured from Control or HIFα knockdown (KD) MELAS cybrid cells. (n=4 biological replicates, error bars represent SE). FIG. 11F: Left, Oxygen consumption measured from MELAS cybrid cells treated with vehicle (DMSO) or PT2385 (10 μM), an inhibitor of HIF2α function, for 24 h. Right, Equal amounts of MELAS cybrid cell lysates treated with vehicle (DMSO) or PT2385 (10 μM) for 24 h, separated on an SDS-PAGE gel, and probed for MNRR1 levels. GAPDH was probed as a loading control.
Immunoblotting: Immunoblotting was performed as described previously. Cell lysates for immunoblotting were prepared using RIPA buffer (Abcam, Waltham, MA) and included a protease and phosphatase inhibitor cocktail (Sigma, St. Louis, MO). […] The clear supernatants were transferred to new tubes and quantified using the Bradford reagent with BSA as standard (BioRad, Hercules. CA). […] For detection after immunoblotting, the SuperSignal™ West Pico PLUS substrate (ThermoFisher, Waltham, MA) was used to generate chemiluminescence signal, which was detected with X-Ray film (RadTech, Vassar, MI).

Assay [2] relates to MELAS cybrid cells. Briefly: Oxygen consumption of MELAS cybrid cells (Seahorse). Conditions: 10 μM, 24 h. As for the experimental part: FIGS. 7A-7E: MNRR1 activation by tizoxanide enhances mtDNA biogenesis and mitophagy to shift heteroplasmy in MELAS cells. FIG. 7A: Oxygen consumption measured from MELAS cybrid cells treated with vehicle (DMSO) or tizoxanide (10 μM) for 48 h (n=4 biological replicates, error bars represent SE). FIG. 7B: Haelll restriction enzyme digestion of a PCR-amplified fragment of mtDNA harboring the m.3243A>G mutation from DW7 cells treated with vehicle (DMSO) or tizoxanide (10 μM) for 144 h. […] FIG. 7C: Genes identified using qPCR of MELAS cybrid cells stably overexpressing EV or MNRR1. FIG. 7D: MtDNA levels are shown relative to nuclear DNA (nDNA) (GAPDH) (n=5 biological replicates, error bars represent SE). […]
FIGS. 11A-11F: RBPJk and HIF2α compete for binding at the ORE in the MNRR1 promoter to regulate transcription. […] FIG. 11E: Oxygen consumption measured from Control or HIFα knockdown (KD) MELAS cybrid cells. […] FIG. 11F: Left, Oxygen consumption measured from MELAS cybrid cells treated with vehicle (DMSO) or PT2385 (10 μM), an inhibitor of HIF2α function, for 24 h. […]
Intact cellular oxygen consumption and measurement of ATP: Cellular oxygen consumption was measured with a Seahorse XFe24 Bioanalyzer (Agilent). Cells were plated at a concentration of 3.5×10^4 per well a day prior to treatment and basal oxygen consumption was measured 48 h after treatments, as described. […]

The test system of assay [3] is RBPJk. As to the kind of experiment: COX412-luciferase dual luciferase reporter assay in MELAS cybrid cells overexpressing MNRR1. Conditions: MELAS cybrid cells overexpressing MNRR1, 0.5 μM. From the text:
FIGS. 12A-12C: FIG. 12A: Dual luciferase reporter assay showing relative activation of MNRR1-luciferase levels in MELAS cybrid cells overexpressing varying proportions of empty vector (EV) and constitutively active RBPJk (RBP-CA). FIG. 12B: Dual luciferase reporter assay showing relative activation of MNRR1-luciferase levels in MELAS cybrid cells overexpressing an empty vector (EV) or constitutively active RBPJk (RBP-CA) and HIF2α. FIG. 12C: Dual luciferase reporter assay showing relative activation of COX412-luciferase levels in MELAS cybrid cells overexpressing an empty vector (EV), MNRR1, and MNRR1+Auranofin (0.5 μM).
Luciferase reporter assay: Luciferase assays were performed with the dual-luciferase reporter assay kit (Promega). Briefly, cells were lysed in 1× passive lysis buffer (Promega) and 25 μL of lysate was used for assay with a tube luminometer using an integration time of 10 s. Transfection efficiency was normalized with the co-transfected pRL-SV40 Renilla luciferase expression plasmid.

`CS(=O)(=O)c1ccc(Oc2cc(F)cc(C#N)c2)c2c1[C@H](O)C(F)(F)C2` [PT2385]: the MNRR1 protein entry in assay [1] was “rebound increase”. In assay [2], the OCR result is listed as “rebound increase”.
Take `CC(=O)OC[C@H]1O[C@@H]([S-])[C@H](OC(C)=O)[C@@H](OC(C)=O)[C@@H]1OC(C)=O.CCP(CC)CC.[Au+]` [Auranonfin, Auranofin]: the “MNRR1 induced transcription (COX412-luciferase)” value in assay [3] is listed as “able to block the effects of MNRR1 induced transcription”.

The record behind these values is patent publication US20250241901A1, “ACTIVATION OF MNRR1 / CHCHD2 AS A THERAPEUTIC TARGET FOR MITOCHONDRIA ASSOCIATED DISORDERS” (Wayne State University, priority 2024, published 2025).
